Measured values: patent US20260042731A1, “(2,4-DICHLOROPHENOXY)ACETIC ACID ANALOGS” (CORTEVA AGRISCIENCE LLC, priority 2022, published 2026)
Like-named read-outs stand apart in the source and are kept apart here.

Columns and labels:
[1] = tested on: glyphosate resistant Conyza canadensis (L.) (ERICA), horseweed; assay: Postemergence herbicide evaluation, growth of Conyza canadensis (ERICA); assay type: in vivo; details: Erigeron canadensis, post-emergence, read-out: Ave. ERICA, percent reduction in plant size relative to the untreated control; for pest or weed control at 280 g/ha: 280 g ae/ha; for pest or weed control at 560 g/ha: 560 g ae/ha
[2] = tested on: Ambrosia artemisiifolia (AMBEL), common ragweed; assay: Postemergence herbicide evaluation, growth of Ambrosia artemisiifolia (AMBEL); assay type: in vivo; details: Ambrosia artemisiifolia, post-emergence, read-out: AVE. AMBEL, percent reduction in plant size relative to the untreated control; for pest or weed control at 280 g/ha: 280 g ae/ha; for pest or weed control at 560 g/ha: 560 g ae/ha
[3] = tested on: Abutilon theophrasti (ABUTH), velvetleaf; assay: Postemergence herbicide evaluation, growth of Abutilon theophrasti (ABUTH); assay type: in vivo; details: Abutilon theophrasti, post-emergence, read-out: AVE. ABUTH, percent reduction in plant size relative to the untreated control; for pest or weed control at 280 g/ha: 280 g ae/ha; for pest or weed control at 560 g/ha: 560 g ae/ha
[4] = tested on: Amaranthus rudis (AMATA), tall water hemp; assay: Postemergence herbicide evaluation, growth of Amaranthus rudis (AMATA); assay type: in vivo; details: Amaranthus tuberculatus, post-emergence, read-out: Ave. AMATA, percent reduction in plant size relative to the untreated control; for pest or weed control at 280 g/ha: 280 g ae/ha; for pest or weed control at 560 g/ha: 560 g ae/ha
[5] = tested on: Chenopodium album (CHEAL), common lambsquarters; assay: Postemergence herbicide evaluation, growth of Chenopodium album (CHEAL); assay type: in vivo; details: Chenopodium album, post-emergence, read-out: Ave. CHEAL, percent reduction in plant size relative to the untreated control; for pest or weed control at 280 g/ha: 280 g ae/ha; for pest or weed control at 560 g/ha: 560 g ae/ha
[6] = tested on: weeds ABUTH, AMATA, AMBEL, CHEAL, ERICA; assay: Postemergence herbicide evaluation, overall average % weed control (ABUTH, AMATA, AMBEL, CHEAL, ERICA); assay type: in vivo; details: post-emergence, read-out: Overall Ave % Weed Control; for pest or weed control at 280 g/ha: 280 g ae/ha; for pest or weed control at 560 g/ha: 560 g ae/ha
[7] = Volatility of compounds measured by thermogravimetric analysis (TGA); assay type: physicochemical

Structure (SMILES)	pest or weed control at 280 g/ha ([1]; 168 h, 7 DAA) [%]	pest or weed control at 560 g/ha ([1]; 168 h, 7 DAA) [%]	pest or weed control at 280 g/ha ([1]; 336 h, 14 DAA) [%]	pest or weed control at 560 g/ha ([1]; 336 h, 14 DAA) [%]	pest or weed control at 280 g/ha ([1]; 504 h, 21 DAA) [%]	pest or weed control at 560 g/ha ([1]; 504 h, 21 DAA) [%]	pest or weed control at 280 g/ha ([2]; 168 h, 7 DAA) [%]	pest or weed control at 560 g/ha ([2]; 168 h, 7 DAA) [%]	pest or weed control at 280 g/ha ([2]; 336 h, 14 DAA) [%]	pest or weed control at 560 g/ha ([2]; 336 h, 14 DAA) [%]	pest or weed control at 280 g/ha ([2]; 504 h, 21 DAA) [%]	pest or weed control at 560 g/ha ([2]; 504 h, 21 DAA) [%]	pest or weed control at 280 g/ha ([3]; 168 h, 7 DAA) [%]	pest or weed control at 560 g/ha ([3]; 168 h, 7 DAA) [%]	pest or weed control at 280 g/ha ([3]; 336 h, 14 DAA) [%]	pest or weed control at 560 g/ha ([3]; 336 h, 14 DAA) [%]	pest or weed control at 280 g/ha ([3]; 504 h, 21 DAA) [%]	pest or weed control at 560 g/ha ([3]; 504 h, 21 DAA) [%]	pest or weed control at 280 g/ha ([4]; 168 h, 7 DAA) [%]	pest or weed control at 560 g/ha ([4]; 168 h, 7 DAA) [%]	also measured
O=C(COc1ccc(Cl)cc1Cl)Nc1cc[nH]n1 [Compound D21]	82.5	80	100	100	95	98	75	85	70	92.5	99.5	100	32.5	47.5	37.5	57.5	47.5	75	72.5	90	pest or weed control at 280 g/ha ([4]; 336 h, 14 DAA): 88%; pest or weed control at 560 g/ha ([4]; 336 h, 14 DAA): 90%; pest or weed control at 280 g/ha ([4]; 504 h, 21 DAA): 67.5%; pest or weed control at 560 g/ha ([4]; 504 h, 21 DAA): 100%; pest or weed control at 280 g/ha ([5]; 168 h, 7 DAA): 82.5%; pest or weed control at 560 g/ha ([5]; 168 h, 7 DAA): 80%; pest or weed control at 280 g/ha ([5]; 336 h, 14 DAA): 95%; pest or weed control at 560 g/ha ([5]; 336 h, 14 DAA): 92.5%; pest or weed control at 280 g/ha ([5]; 504 h, 21 DAA): 92.5%; pest or weed control at 560 g/ha ([5]; 504 h, 21 DAA): 96%; pest or weed control at 280 g/ha ([6]; 168 h, 7 DAA): 69%; pest or weed control at 560 g/ha ([6]; 168 h, 7 DAA): 76.5%; pest or weed control at 280 g/ha ([6]; 336 h, 14 DAA): 78.1%; pest or weed control at 560 g/ha ([6]; 336 h, 14 DAA): 86.5%; pest or weed control at 280 g/ha ([6]; 504 h, 21 DAA): 80.4%; pest or weed control at 560 g/ha ([6]; 504 h, 21 DAA): 93.8%; TGA Data (rate of weight loss, volatility) [7]: 0.07078 µg/min
CC(C)CONC(=O)COc1ccc(Cl)cc1Cl [Compound D22]	85	85	100	99	100	100	90	85	90	97.5	100	100	72.5	82.5	93.5	98.5	100	99	80	92.5	pest or weed control at 280 g/ha ([4]; 336 h, 14 DAA): 92.5%; pest or weed control at 560 g/ha ([4]; 336 h, 14 DAA): 92.5%; pest or weed control at 280 g/ha ([4]; 504 h, 21 DAA): 87.5%; pest or weed control at 560 g/ha ([4]; 504 h, 21 DAA): 100%; pest or weed control at 280 g/ha ([5]; 168 h, 7 DAA): 80%; pest or weed control at 560 g/ha ([5]; 168 h, 7 DAA): 82.5%; pest or weed control at 280 g/ha ([5]; 336 h, 14 DAA): 91.5%; pest or weed control at 560 g/ha ([5]; 336 h, 14 DAA): 99%; pest or weed control at 280 g/ha ([5]; 504 h, 21 DAA): 97.5%; pest or weed control at 560 g/ha ([5]; 504 h, 21 DAA): 97.5%; pest or weed control at 280 g/ha ([6]; 168 h, 7 DAA): 81.5%; pest or weed control at 560 g/ha ([6]; 168 h, 7 DAA): 85.5%; pest or weed control at 280 g/ha ([6]; 336 h, 14 DAA): 93.5%; pest or weed control at 560 g/ha ([6]; 336 h, 14 DAA): 97.3%; pest or weed control at 280 g/ha ([6]; 504 h, 21 DAA): 97%; pest or weed control at 560 g/ha ([6]; 504 h, 21 DAA): 99.3%; TGA Data (rate of weight loss, volatility) [7]: 0.2649 µg/min
CC(C)ONC(=O)COc1ccc(Cl)cc1Cl [Compound D23]	80	77.5	100	97.5	99	100	77.5	75	80	85	100	100	70	90	93.5	99	99	100	82.5	82.5	pest or weed control at 280 g/ha ([4]; 336 h, 14 DAA): 90%; pest or weed control at 560 g/ha ([4]; 336 h, 14 DAA): 90%; pest or weed control at 280 g/ha ([4]; 504 h, 21 DAA): 72.5%; pest or weed control at 560 g/ha ([4]; 504 h, 21 DAA): 87.5%; pest or weed control at 280 g/ha ([5]; 168 h, 7 DAA): 80%; pest or weed control at 560 g/ha ([5]; 168 h, 7 DAA): 85%; pest or weed control at 280 g/ha ([5]; 336 h, 14 DAA): 96.5%; pest or weed control at 560 g/ha ([5]; 336 h, 14 DAA): 99%; pest or weed control at 280 g/ha ([5]; 504 h, 21 DAA): 94%; pest or weed control at 560 g/ha ([5]; 504 h, 21 DAA): 95%; pest or weed control at 280 g/ha ([6]; 168 h, 7 DAA): 78%; pest or weed control at 560 g/ha ([6]; 168 h, 7 DAA): 82%; pest or weed control at 280 g/ha ([6]; 336 h, 14 DAA): 92%; pest or weed control at 560 g/ha ([6]; 336 h, 14 DAA): 94.1%; pest or weed control at 280 g/ha ([6]; 504 h, 21 DAA): 92.9%; pest or weed control at 560 g/ha ([6]; 504 h, 21 DAA): 96.5%; TGA Data (rate of weight loss, volatility) [7]: 0.6973 µg/min
O=C(COc1ccc(Cl)cc1Cl)Nc1nccs1 [Compound D24]	70	75	95	87.5	97.5	99.5	77.5	67.5	80	92.5	100	100	40	47.5	55	65	70	70	80	85	pest or weed control at 280 g/ha ([4]; 336 h, 14 DAA): 87.5%; pest or weed control at 560 g/ha ([4]; 336 h, 14 DAA): 85%; pest or weed control at 280 g/ha ([4]; 504 h, 21 DAA): 77.5%; pest or weed control at 560 g/ha ([4]; 504 h, 21 DAA): 92.5%; pest or weed control at 280 g/ha ([5]; 168 h, 7 DAA): 82.5%; pest or weed control at 560 g/ha ([5]; 168 h, 7 DAA): 75%; pest or weed control at 280 g/ha ([5]; 336 h, 14 DAA): 90%; pest or weed control at 560 g/ha ([5]; 336 h, 14 DAA): 92.5%; pest or weed control at 280 g/ha ([5]; 504 h, 21 DAA): 90%; pest or weed control at 560 g/ha ([5]; 504 h, 21 DAA): 95%; pest or weed control at 280 g/ha ([6]; 168 h, 7 DAA): 70%; pest or weed control at 560 g/ha ([6]; 168 h, 7 DAA): 70%; pest or weed control at 280 g/ha ([6]; 336 h, 14 DAA): 81.5%; pest or weed control at 560 g/ha ([6]; 336 h, 14 DAA): 84.5%; pest or weed control at 280 g/ha ([6]; 504 h, 21 DAA): 87%; pest or weed control at 560 g/ha ([6]; 504 h, 21 DAA): 91.4%; TGA Data (rate of weight loss, volatility) [7]: 0.08298 µg/min
